US20240358829A1, “Lymphocyte Population and Methods for Producing Same” (AVM Biotechnology, LLC, priority 2021, published 2024)
Where “and” joins values, the source holds several entries; their conditions need not be identical. Identical values can stand only once.

System: CD56+γδTCR+iTCR+ cells
Test: AVM0703 R/R NHL clinical trial, whole blood flow cytometry
Assay type: in vivo, human
Protocol: FIG. 15. 101-001 size (FSC) and complexity (SSC) scattergram of AVM_NKT cells. […] Blood was stained with panel antibodies based for 15 minutes in the dark at Room Temperature. RBC lysis was performed by addition of 1 mL of 1×BD FACS Lysing Solution (BD Bioscience), diluted with MilliQ water, for 10 minutes in the dark at Room Temperature. Samples were washed with 2 mL 1×DPBS CMF (Gibco) and resuspended in 300 μL of 1×DPBS CMF before 5 μL of 7AAD (Biolegend) was added to each sample for live/dead cell determination and incubated for 5 minutes in the dark at Room Temperature. 250 μL of sample were taken up for acquisition on Macsquant 16 Flow Cytometer (Miltenyi, Serial #40150). Live white blood cells were gated for CD56+ cells co-expressing gamma delta TCR and the invariant TCR and labelled red in the forward versus side scattergram. Red-labelled cells fall within the forward versus side scattergrams where large granular cells such as neutrophils and large granular lymphocytes are known to fall.
For characterisation of the induced/mobilized population of NKT-like cells (AVM-NKT) in humans, whole blood from human subjects was drawn in K2 EDTA Vacutainer tube (367862, BD Biosciences, NJ) and shipped to AVM Biotechnology at room temperature. 100 μl of whole blood was stained with the following antibodies: CD45 AF700 (2D1), CD16 APC (3G8), INKT PECy7 (6B11), CD8 PE (SK1), CD14 FITC (M5E2), CD56 BV650 (5.1H11), γδTCR BV510 (B1), CD19 BV421 (HIB19), NKp44 APC (P44-8) (all from Biolegend, San Diego, CA) and CD3 APCVio770 (BW264/56), (Miltenyi Biotec, San Jose, CA), 7-AAD, (Biolegend, San Diego CA) was included to distinguish the live and dead cells.

[1] = patient 101-001, 6 mg/kg, 1 hour post-infusion
[2] = patient 101-001, 6 mg/kg, Day 14
[3] = patient 103-002, 6 mg/kg, 1 hour post-infusion
[4] = patient 103-002, 6 mg/kg, Day 3
[5] = patient 103-002, 6 mg/kg, Day 14
[6] = patient 103-005, 9 mg/kg, 1 hour post-infusion
[7] = patient 103-005, 9 mg/kg, Day 3
[8] = patient 103-005, 9 mg/kg, Day 14
[9] = patient 103-006, 9 mg/kg, day 3
[10] = patient 103-006, 9 mg/kg, day 14
[11] = patient 108-001, 1st 9 mg/kg infusion, 1 hour

## C[C@@H]1C[C@H]2[C@@H]3CCC4=CC(=O)C=C[C@]4(C)[C@@]3(F)[C@@H](O)C[C@]2(C)[C@@]1(O)C(=O)COP(=O)(O)O [AVM0703, dexamethasone sodium phosphate]
R/R NHL clinical trial patients, dosing between 6 mg/kg and 18 mg/kg
  time to mobilization of bi-specific gamma delta TCR+ invariant TCR+ cell into the blood: 30 to 60 min
Patient 101-001, 6 mg/kg
  CD56+gdTCR+ inv TCR+ cells induced: YES
[1]
  CD3 (as % of CD56+ γδTCR+ iTCR+ cells): 39%
  CD8med (as % of CD56+ γδTCR+ iTCR+ cells): 86%
  CD19+ (as % of CD56+ γδTCR+ iTCR+ cells): 54%
  CD45 (as % of CD56+ γδTCR+ iTCR+ cells): 99%
  CD56+ γδTCR+ iTCR+ % of total WBCs: 0.24%
  CD56+ γδTCR+ iTCR+ cells/uL: 11.4 cells/uL
  TCRαβ (as % of CD56+ γδTCR+ iTCR+ cells): 100%
[2]
  CD3 (as % of CD56+ γδTCR+ iTCR+ cells): 99%
  CD8med (as % of CD56+ γδTCR+ iTCR+ cells): 94%
  CD19+ (as % of CD56+ γδTCR+ iTCR+ cells): 22%
  CD45 (as % of CD56+ γδTCR+ iTCR+ cells): 99.5%
  CD56+ γδTCR+ iTCR+ % of total WBCs: 1.74%
  CD56+ γδTCR+ iTCR+ cells/uL: 78.7 cells/uL and 79 cells/uL
  TCRαβ (as % of CD56+ γδTCR+ iTCR+ cells): 99%
Patient 101-001, one hour after 6 mg/kg infusion (pre-infusion 1.6%)
  CD56+γδTCR+ cells, % of all CD45+ cells: 3.48%
Patient 101-001, one hour after 6 mg/kg infusion (pre-infusion 76)
  CD56+γδTCR+ cells/uL blood: 165 cells/uL blood
Patient 103-002, 6 mg/kg
  % of CD56+γδTCR+ cells co-expressing invTCR: about 10%
  CD56+gdTCR+ inv TCR+ cells induced: YES
[3]
  CD3 (as % of CD56+ γδTCR+ iTCR+ cells): 4.2%
  CD8hi (as % of CD56+ γδTCR+ iTCR+ cells): 2.6%
  CD8med (as % of CD56+ γδTCR+ iTCR+ cells): 2.9%
  CD19+ (as % of CD56+ γδTCR+ iTCR+ cells): 0.78%
  CD45 (as % of CD56+ γδTCR+ iTCR+ cells): 92%
  CD56+ γδTCR+ iTCR+ % of total WBCs: 0.83%
  CD56+ γδTCR+ iTCR+ cells/uL: 65.6 cells/uL
  TCRαβ (as % of CD56+ γδTCR+ iTCR+ cells): 79%
Patient 103-002, 6 mg/kg, 1 hour post-infusion (pre-infusion 9.3%)
  CD56+γδTCR+ cells, % of all CD45+ cells: 6.54%
Patient 103-002, 6 mg/kg, 1 hour post-infusion (pre-infusion 735)
  CD56+γδTCR+ cells/uL blood: 517 cells/uL blood
[4]
  CD3 (as % of CD56+ γδTCR+ iTCR+ cells): 67%
  CD8hi (as % of CD56+ γδTCR+ iTCR+ cells): 2%
  CD8med (as % of CD56+ γδTCR+ iTCR+ cells): 30%
  CD19+ (as % of CD56+ γδTCR+ iTCR+ cells): 4% and 4.2%
  CD45 (as % of CD56+ γδTCR+ iTCR+ cells): 17%
  CD56+ γδTCR+ iTCR+ % of total WBCs: 1.99%
  CD56+ γδTCR+ iTCR+ cells/uL: 366 cells/uL and 366.2 cells/uL
  TCRαβ (as % of CD56+ γδTCR+ iTCR+ cells): 54%
[5]
  CD3 (as % of CD56+ γδTCR+ iTCR+ cells): 31.5%
  CD8hi (as % of CD56+ γδTCR+ iTCR+ cells): 2.4%
  CD8med (as % of CD56+ γδTCR+ iTCR+ cells): 70%
  CD19+ (as % of CD56+ γδTCR+ iTCR+ cells): 1.76%
  CD45 (as % of CD56+ γδTCR+ iTCR+ cells): 98%
  CD56+ γδTCR+ iTCR+ % of total WBCs: 0.42%
  CD56+ γδTCR+ iTCR+ cells/uL: 27 cells/uL
  TCRαβ (as % of CD56+ γδTCR+ iTCR+ cells): 78%
Patient 103-004, 6 mg/kg
  CD56+gdTCR+ inv TCR+ cells induced: YES
Patient 103-005, 9 mg/kg
  CD56+gdTCR+ inv TCR+ cells induced: YES
[6]
  CD3 (as % of CD56+ γδTCR+ iTCR+ cells): 6%
  CD8med (as % of CD56+ γδTCR+ iTCR+ cells): 17%
  CD14+ (as % of CD56+ γδTCR+ iTCR+ cells): 76%
  CD16 (as % of CD56+ γδTCR+ iTCR+ cells): 66%
  CD19+ (as % of CD56+ γδTCR+ iTCR+ cells): 33.9%
  CD45 (as % of CD56+ γδTCR+ iTCR+ cells): 99%
  CD56+ γδTCR+ iTCR+ % of total WBCs: 0.87%
  CD56+ γδTCR+ iTCR+ cells/uL: 21.8 cells/uL
[7]
  CD3 (as % of CD56+ γδTCR+ iTCR+ cells): 10%
  CD8med (as % of CD56+ γδTCR+ iTCR+ cells): 15%
  CD14+ (as % of CD56+ γδTCR+ iTCR+ cells): 8%
  CD16 (as % of CD56+ γδTCR+ iTCR+ cells): 84%
  CD19+ (as % of CD56+ γδTCR+ iTCR+ cells): 28%
  CD45 (as % of CD56+ γδTCR+ iTCR+ cells): 63%
  CD56+ γδTCR+ iTCR+ % of total WBCs: 2.67%
  CD56+ γδTCR+ iTCR+ cells/uL: 82.8 cells/uL
[8]
  CD3 (as % of CD56+ γδTCR+ iTCR+ cells): 66%
  CD8med (as % of CD56+ γδTCR+ iTCR+ cells): 16%
  CD14+ (as % of CD56+ γδTCR+ iTCR+ cells): 81%
  CD16 (as % of CD56+ γδTCR+ iTCR+ cells): 37%
  CD19+ (as % of CD56+ γδTCR+ iTCR+ cells): 99%
  CD45 (as % of CD56+ γδTCR+ iTCR+ cells): 84%
  CD56+ γδTCR+ iTCR+ % of total WBCs: 0.66%
  CD56+ γδTCR+ iTCR+ cells/uL: 22.4 cells/uL
Patient 103-005, one hour after 9 mg/kg (baseline 2.7%)
  CD56+γδTCR+ cells, % of CD45+ cells: 0.21%
[9]
  % of CD56+γδTCR+ cells expressing CD16: 92%
  % of CD56+γδTCR+ cells expressing NKp44: 19%
  CD56+γδTCR+ cells, % of all WBCs: 2.2%
  ICAM3 MFI of CD56+γδTCR+ cells: 240
[10]
  % of CD56+γδTCR+ cells expressing CD16: 92%
  % of CD56+γδTCR+ cells expressing NKp44: 19%
  CD56+γδTCR+ cells, % of all WBCs: 2.2% and 0.11%
  ICAM3 MFI of CD56+γδTCR+ cells: 240
Patient 103-006, one hour after 9 mg/kg
  CD56+γδTCR+ cells, number or expression in the blood: had not changed
Patient 103-006, one hour after 9 mg/kg (baseline 42%)
  % of CD56+γδTCR+ cells NKp44+: 25%
Patient 103-006, one hour after 9 mg/kg (baseline 294)
  ICAM3 MFI of CD56+γδTCR+ cells: no change
Patient 108-001, 9 mg/kg
  CD56+gdTCR+ inv TCR+ cells induced: YES
[11]
  CD3 (as % of CD56+ γδTCR+ iTCR+ cells): 4%
  CD8hi (as % of CD56+ γδTCR+ iTCR+ cells): 1%
  CD8med (as % of CD56+ γδTCR+ iTCR+ cells): 11%
  CD14+ (as % of CD56+ γδTCR+ iTCR+ cells): 35%
  CD16 (as % of CD56+ γδTCR+ iTCR+ cells): 90%
  CD19+ (as % of CD56+ γδTCR+ iTCR+ cells): 11.3%
